According to US20230322815A1, “NOVEL COMPOUNDS AND THERAPEUTIC USES THEREOF” (University of Huddersfield, priority 2020, published 2023):

Assays:
Src = Src (Homo sapiens, UniProt P12931); assay: Cell-free kinase screen; type: biochemical; conditions: 10 μM complex
Method: FIG. 9. Effects of [L2Zn3]^6+ and [L2Cu3]^6+ on the activity of purified human kinases. a,b, Percentage inhibition of the indicated kinases by [L2Zn3]^6+ (a) and [L2Cu3]^6+ (b) respectively at a concentration of 10 μM; full results are presented in the ESI. c,d, Kinases whose activity is stimulated by [L2Zn3]^6+ (c) or [L2Cu3]^6+ (d) complexes. e,f, Kinome map showing kinases inhibited (red) or stimulated (green) by [L2Zn3]^6+ (e) or [L2Cu3]^6+ (f). III ustration reproduced courtesy of Cell Signalling Technology Inc (www.cellsignal.com)
FIG. 16. The effect of [L2Zn3]^6+ and [L2Cu3]^6+ on the activity of recombinant human kinases. The compounds were submitted to the MRC Protein Phosphorylation and Ubiquitination Unit International Centre for Kinase Profiling (University of Dundee) and tested at a concentration of 10 μM against 140 human kinases (Premier Screen).
Given the ability of the Zn^2+ complex to dephosphorylate amino acids serine, tyrosine and threonine (FIG. 6) and the Cu^2+ complex to bind phenyl phosphate (FIG. 3), it was examined whether the complexes affect the activity of kinases. This was assessed in a cell-free screen of 140 kinases using purified recombinant human kinases and substrate peptides incubated in the presence of ^33P ATP and 10 μM complex or solvent control. […]

chick embryo [1] = assay: Embryonic toxicity, H460 in ovo study; type: in vivo, chick (White Leghorn); conditions: for embryo tolerability: all doses tested, no statistically significant difference to solvent control; for % Alive / % Dead / Alive (embryos at E18) / Dead (embryos at E18): H460 study
Method: (§1) 10^6 tumor cells (H460, HT29 or HCT116) were grafted onto the upper chorioallantoic membrane (CAM) of the developing chick embryo on embryonic day 9 (E9). Access to the upper CAM was through a small hole drilled through the eggshell of fertilized White Leghorn eggs (into the air sac) on E9 (15 eggs per experimental group).
(§2) 100 μl of freshly prepared experimental compound, vehicle control or standard-of-care (SoC) drug at their working concentrations were pipetted onto the tumor graft at E11, E13, E15 and E17. On day E18, the upper CAM (with tumor) was removed, washed by PBS buffer and then directly transferred in PFA (fixation for 48 hrs). After that, tumors were carefully cut away from normal CAM tissue and weighed.
(§3) Embryonic viability was checked daily. The number of dead embryos was also counted on E18, to evaluate treatment-induced embryo toxicity.

[2] = test system: recombinant AMPK (AMPKα p-T172); assay: Western blot of purified recombinant kinase after exposure to complex; type: biochemical, human; conditions: 50 μM complex, 4 hours, in the presence of ATP
Method: FIG. 10. Western blot analysis of purified recombinant Src and AMPK following exposure to [L2Zn3]^6+ and [L2Cu3]^6+. Purified enzymes were incubated with complexes (50 μM) for 4 hours in the presence of ATP prior to analysis.
Protein lysates and recombinant proteins were resolved on 15% SDS polyacrylamide gels. Proteins were electroblotted onto nitrocellulose membrane by wet transfer in 1×Tris Glycine buffer (Biorad) at 35 mA overnight at room temperature (Allison et al., 2014). After blocking of membranes, these were incubated with primary antibody overnight at 4° C. before addition of rabbit or mouse secondary antibody (HRP-conjugated) for 1 h at room temperature and development of blots by enhanced chemiluminescence. […] Quantification of signals was performed by densitometry using Image J software.
To investigate these hypotheses further, regulatory phospho-amino acids of two key kinases identified by the kinase screen, AMPK and Src, were analysed following incubation of the recombinant kinases with Zn^2+ or Cu^2+ complexes.

chick embryo [3] = assay: Embryonic toxicity, HT29 in ovo study; type: in vivo, chick (White Leghorn); conditions: for % Alive / % Dead / Alive (embryos at E18) / Dead (embryos at E18): HT29 study; for embryo tolerability: dose escalation showing no increased embryonic toxicity
Method: as §1, §2, §3

HCT116 cancer cells = assay: Immunoblot of cellular proteins after treatment; type: cell-based, human; conditions: 5 μM, 40 h
Method: (§4) FIG. 12. Immunoblots showing the differential effects of [L2Cu3]^6+ and [L2Zn3]^6+ treatment of HCT116 cancer cells and ARPE19 non-cancer cells on key cellular proteins associated with cellular and metabolic stress. Representative immunoblot images of the indicated proteins following cell exposure to 5 μM [L2Cu3]^6+ or [L2Zn3]^6+ for 40 h. Tyrosine phosphorylated proteins are indicated using a pan-phospho-Tyr antibody; β-actin as a loading control.
(§5) Protein lysates and recombinant proteins were resolved on 15% SDS polyacrylamide gels. Proteins were electroblotted onto nitrocellulose membrane by wet transfer in 1×Tris Glycine buffer (Biorad) at 35 mA overnight at room temperature (Allison et al., 2014). After blocking of membranes, these were incubated with primary antibody overnight at 4° C. before addition of rabbit or mouse secondary antibody (HRP-conjugated) for 1 h at room temperature and development of blots by enhanced chemiluminescence. Primary antibodies were: anti-Src (total) (Cell Signalling Technology #2123 1:1000), anti-phosphorylated Src (Y527) (Cell Signalling Technology #21055 1:1000), anti-phosphorylated Src (Y416) (Cell Signalling Technology #69435 1:1000), anti-AMPKα (total) (Cell Signalling Technology #2532 1:1000), anti-phosphorylated AMPKα (T172) (Cell Signalling Technology […] 1:1000), anti-phospho-Tyr (pan) (Cell Signalling Technology #8954 1:2000), anti-p53 (Santa Cruz, DO-1 clone, 1:1000), anti-β-actin (Merck MAB1501, 1:40,000). Quantification of signals was performed by densitometry using Image J software.

ARPE19 non-cancer cells = assay: Immunoblot of cellular proteins after treatment; type: cell-based, human; conditions: 5 μM, 40 h
Method: as §4, §5

[4] = dose [1]: L2Zn3 54 μM, L2Cu3 42 μM
[5] = dose [2]: L2Zn3 108 μM, L2Cu3 84 μM
[6] = dose [3]: L2Zn3 216 μM, L2Cu3 168 μM
[7] = dose [1]: L2Zn3 26.6 μM, L2Cu3 23.8 μM
[8] = dose [2]: L2Zn3 53.2 μM, L2Cu3 65.7 μM
[9] = dose [3]: L2Zn3 106.4 μM, L2Cu3 131.46 μM

Chain of Src (P12931 whole entry): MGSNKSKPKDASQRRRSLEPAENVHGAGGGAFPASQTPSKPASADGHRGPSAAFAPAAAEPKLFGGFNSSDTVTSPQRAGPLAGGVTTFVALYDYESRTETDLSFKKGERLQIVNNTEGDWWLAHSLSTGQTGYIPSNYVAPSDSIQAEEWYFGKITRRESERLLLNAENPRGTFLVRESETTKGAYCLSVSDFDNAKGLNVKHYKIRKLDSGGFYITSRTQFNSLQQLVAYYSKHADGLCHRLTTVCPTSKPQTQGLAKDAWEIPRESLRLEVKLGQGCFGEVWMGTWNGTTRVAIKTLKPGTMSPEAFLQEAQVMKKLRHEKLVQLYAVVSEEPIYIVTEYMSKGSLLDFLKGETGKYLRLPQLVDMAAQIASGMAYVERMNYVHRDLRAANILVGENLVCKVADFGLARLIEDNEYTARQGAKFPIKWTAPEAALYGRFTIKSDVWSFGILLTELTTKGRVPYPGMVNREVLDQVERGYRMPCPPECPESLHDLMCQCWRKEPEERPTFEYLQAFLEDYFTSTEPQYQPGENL

## [Cu+2].[Cu+2].[Cu+2].c1ccc(-c2csc(NCCN(CCNc3nc(-c4ccccn4)cs3)CCNc3nc(-c4ccccn4)cs3)n2)nc1.c1ccc(-c2csc(NCCN(CCNc3nc(-c4ccccn4)cs3)CCNc3nc(-c4ccccn4)cs3)n2)nc1 [[L2Cu3]^6+]
Src
  effect on Src kinase activity in the kinase screen: activity was increased
Chick embryo [1]
  embryo tolerability: well tolerated
Chick embryo [1]; [4]
  % Alive: 85.71%
  % Dead: 14.29%
  Alive (embryos at E18): 12
  Dead (embryos at E18): 2
Chick embryo [1]; [5]
  % Alive: 92.86%
  % Dead: 7.14%
  Alive (embryos at E18): 13
  Dead (embryos at E18): 1
Chick embryo [1]; [6]
  % Alive: 85.71%
  % Dead: 14.29%
  Alive (embryos at E18): 12
  Dead (embryos at E18): 2
[2]
  AMPKα p-T172 levels by immunoblotting: significantly reduced p-T172 levels
Chick embryo [3]; [7]
  % Alive: 71.43%
  % Dead: 28.57%
  Alive (embryos at E18): 10
  Dead (embryos at E18): 4
Chick embryo [3]; [8]
  % Alive: 85.71%
  % Dead: 14.29%
  Alive (embryos at E18): 12
  Dead (embryos at E18): 2
Chick embryo [3]; [9]
  % Alive: 92.31%
  % Dead: 7.69%
  Alive (embryos at E18): 12
  Dead (embryos at E18): 1
Chick embryo [3]
  embryo tolerability: well tolerated
HCT116 cancer cells
  increase in p53 levels: ~1.7 fold
ARPE19 non-cancer cells
  p53 levels: decreased

## [Zn+2].[Zn+2].[Zn+2].c1ccc(-c2csc(NCCN(CCNc3nc(-c4ccccn4)cs3)CCNc3nc(-c4ccccn4)cs3)n2)nc1.c1ccc(-c2csc(NCCN(CCNc3nc(-c4ccccn4)cs3)CCNc3nc(-c4ccccn4)cs3)n2)nc1 [[L2Zn3]^6+]
Src
  effect on Src kinase activity in the kinase screen: activity was increased
Chick embryo [1]
  embryo tolerability: well tolerated
Chick embryo [1]; [4]
  % Alive: 92.86%
  % Dead: 7.14%
  Alive (embryos at E18): 13
  Dead (embryos at E18): 1
Chick embryo [1]; [5]
  % Alive: 76.92%
  % Dead: 23.08%
  Alive (embryos at E18): 10
  Dead (embryos at E18): 3
Chick embryo [1]; [6]
  % Alive: 90.91%
  % Dead: 9.09%
  Alive (embryos at E18): 10
  Dead (embryos at E18): 1
[2]
  AMPKα p-T172 levels by immunoblotting: significantly reduced p-T172 levels
Chick embryo [3]; [7]
  % Alive: 85.71%
  % Dead: 14.29%
  Alive (embryos at E18): 12
  Dead (embryos at E18): 2
Chick embryo [3]; [8]
  % Alive: 92.86%
  % Dead: 7.14%
  Alive (embryos at E18): 13
  Dead (embryos at E18): 1
Chick embryo [3]; [9]
  % Alive: 92.86%
  % Dead: 7.14%
  Alive (embryos at E18): 13
  Dead (embryos at E18): 1
Chick embryo [3]
  embryo tolerability: well tolerated
HCT116 cancer cells
  cellular p-T172 AMPKα relative to total AMPKα levels: increased
  increase in p53 levels: ~2.7 fold
HCT116 cancer cells; pan phospho-tyrosine antibody
  decrease in total levels of Tyr-phosphorylated proteins: ~10%
ARPE19 non-cancer cells
  p53 levels: decreased
